From patent publication US20240109873A1, “ANTAGONISTS OF THE MUSCARINIC ACETYLCHOLINE RECEPTOR M4” (Vanderbilt University, priority 2020, published 2024)

Target: T1, human mAChR M4 (Homo sapiens, UniProt P08173)
T1 construct: expressed in transfected cells; host or cells: CHO-K1 (ATCC), co-transfected with chimeric G protein Gqi5
T1 sequence (P08173 1-479): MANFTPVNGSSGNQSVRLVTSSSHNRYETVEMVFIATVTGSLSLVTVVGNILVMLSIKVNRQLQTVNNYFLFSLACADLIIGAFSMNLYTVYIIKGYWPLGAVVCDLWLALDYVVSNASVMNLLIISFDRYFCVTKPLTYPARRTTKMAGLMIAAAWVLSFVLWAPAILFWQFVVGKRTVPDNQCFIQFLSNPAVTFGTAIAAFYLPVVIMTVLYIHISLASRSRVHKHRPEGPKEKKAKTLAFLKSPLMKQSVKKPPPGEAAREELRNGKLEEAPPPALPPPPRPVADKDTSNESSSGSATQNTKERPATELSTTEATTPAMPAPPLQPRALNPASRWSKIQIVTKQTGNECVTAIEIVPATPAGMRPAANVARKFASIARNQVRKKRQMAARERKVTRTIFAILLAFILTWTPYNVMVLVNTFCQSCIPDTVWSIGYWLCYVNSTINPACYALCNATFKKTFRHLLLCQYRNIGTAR
Assay: mAChR M4 cell-based functional assay (calcium flux, antagonism of EC80 acetylcholine response, M4/Gqi5/CHO-K1 cells)
Details: for remaining activity at 30 µM: CHO-K1, % ACh maximum at 30 μM, read-out: Human M4 Emin; for IC50: decrease of the response elicited by an EC80 concentration of acetylcholine, CHO-K1 cells, Gqi5; for Human M4 Emin: % ACh maximum at 30 μM
Procedure: Human or rat M4 cDNA, along with the chimeric G protein Gqi5, were transfected into Chinese hamster ovary (CHO-K1) cells purchased from the American Type Culture Collection using Lipofectamine2000. M4/Gqi5/CHO cells were grown in Ham's F-12 medium containing 10% heat-inactivated fetal bovine serum (FBS), 20 mM HEPES, 500 μg/mL G418 sulfate, and 200 μg/mL Hygromycin B.
For high throughput measurement of agonist-evoked increases in intracellular calcium, CHO-K1 cells stably expressing muscarinic receptors were plated in growth medium lacking G418 and hygromycin at 15,000 cells/20 μL/well in Greiner 384-well black-walled, tissue culture (TC)-treated, clear-bottom plates (VWR). Cells were incubated overnight at 37° C. and 5% CO2. The next day, cells were washed using an ELX 405 (BioTek) with assay buffer; the final volume was then aspirated to 20 μL. Next, 20 μL of a 2.3 μM stock of Fluo-4/acetoxymethyl ester (Invitrogen, Carlsbad, CA), prepared as a 2.3 mM stock in DMSO and mixed in a 1:1 ratio with 10% (w/v) Pluronic F-127 and diluted in assay buffer, was added to the wells and the cell plates were incubated for 50 min at 37° C. and 5% CO2. Dye was removed by washing with the ELX 405 and the final volume was aspirated to 20 μL. Compound master plates were formatted in a 10-point concentration-response curve (CRC) format (1:3 dilutions) in 100% DMSO with a starting concentration of 10 or 1 mM using a BRAVO liquid handler (Agilent). Test compound CRCs were then transferred to daughter plates (240 nL) using the Echo acoustic plate reformatter (Labcyte, Sunnyvale, CA) and then diluted into assay buffer (40 μL) to a 2× stock using a Thermo Fisher Combi (Thermo Fisher Scientific, Waltham, MA).
Calcium flux was measured using the Functional Drug Screening System (FDSS) 6000 or 7000 (Hamamatsu Corporation, Tokyo, Japan) as an increase in the fluorescent static ratio. Compounds were applied to cells (20 μL, 2×) using the automated system of the FDSS at 2 seconds into the protocol and the data were collected at 1 Hz. At 143 s, 10 μL of an EC20 concentration of the muscarinic receptor agonist acetylcholine was added (5×), followed by the addition of 12 μL of an EC80 concentration of acetylcholine at the 268 s time point (5×). Agonist activity was analyzed as a concentration-dependent increase in calcium mobilization upon compound addition. Positive allosteric modulator activity was analyzed as a concentration-dependent increase in the EC20 acetylcholine response. Antagonist activity was analyzed as a concentration-dependent decrease in the EC80 acetylcholine response; for the purposes of the tables herein, an IC50 (inhibitory concentration 50) was calculated as a concentration-dependent decrease of the response elicited by an EC80 concentration of acetylcholine. Concentration-response curves were generated using a four-parameter logistical equation in XLFit curve fitting software (IDBS, Bridgewater, NJ) for Excel (Microsoft, Redmond, WA) or Prism (GraphPad Software, Inc., San Diego, CA) or the Dotmatics software platform (Dotmatics, Bishop's Stortford, UK). […]
Compounds were synthesized as described above. Activity (IC50 and Emin) was determined in the mAChR M4 cell-based functional assay as described above and the data are shown in Table 2.

Compound | remaining activity at 30 µM | IC50 | Human M4 Emin
[2H]C1([2H])CC(C([2H])([2H])N2C[C@H]3C[C@H](Nc4ccc(-c5cnccc5C(F)(F)F)nn4)C[C@@]3(C)C2)CC([2H])([2H])O1 (racemic) [Compound 27, (3aR,5S,6aS)-3a-methyl-2-((tetrahydro-2H-pyran-4-yl-2,2,6,6-d4)methyl-d2)-N-(6-(4-(trifluoromethyl)pyridin-3-yl)pyridazin-3-yl)octahydrocyclopenta[c]pyrrol-5-amine and (3aS,5R,6aR)-3a-methyl-2-((tetrahydro-2H-pyran-4-yl-2,2,6,6-d4)methyl-d2)-N-(6-(4-(trifluoromethyl)pyridin-3-yl)pyridazin-3-yl)octahydrocyclopenta[c]pyrrol-5-amine] | 3% | 3.2 nM | 
[2H]C([2H])(N1C[C@H]2C[C@H](Nc3ccc(-c4cnccc4C(F)(F)F)nn3)C[C@H]2C1)[C@]12CCC[C@H]1OCC2 (racemic) [Compound 29, (3aR,5s,6aS)-2-(((3aR,6aR)-hexahydro-3aH-cyclopenta[b]furan-3a-yl)methyl-d2)-N-(6-(4-(trifluoromethyl)pyridin-3-yl)pyridazin-3-yl)octahydrocyclopenta[c]pyrrol-5-amine and (3aR,5s,6aS)-2-(((3aS,6aS)-hexahydro-3aH-cyclopenta[b]furan-3a-yl)methyl-d2)-N-(6-(4-(trifluoromethyl)pyridin-3-yl)pyridazin-3-yl)octahydrocyclopenta[c]pyrrol-5-amine] | 4% | 44 nM | 
[2H]C([2H])(N1C[C@H]2C[C@H](Nc3ccc(-c4cnccc4C(F)(F)F)nn3)C[C@H]2C1)[C@@]12CCCCC[C@H]1OCC2 (racemic) [Compound 30, (3aR,5s,6aS)-2-(((3aS,8aR)-octabydro-3aH-cyclohepta[b]furan-3a-yl)methyl-d2)-N-(6-(4-(trifluoromethyl)pyridin-3-yl)pyridazin-3-yl)octahydrocyclopenta[c]pyrrol-5-amine and (3aR,5s,6aS)-2-(((3aR,8aS)-octahydro-3aH-cyclohepta[b]furan-3a-yl)methyl-d2)-N-(6-(4-(trifluoromethyl)pyridin-3-yl)pyridazin-3-yl)octahydrocyclopenta[c]pyrrol-5-amine] | 31% | 4000 nM | 
[2H]C([2H])(C1CCOCC1)N1C[C@@H]2C[C@@H](Nc3ccc(-c4cccnc4C(F)(F)F)nn3)C[C@]2(C)C1 (racemic) [Compound 56, (3aR,5S,6aS)-3a-methyl-2-((tetrahydro-2H-pyran-4-yl)methyl-d2)-N-(6-(2-(trifluoromethyl)pyridin-3-yl)pyridazin-3-yl)octahydrocyclopenta[c]pyrrol-5-amine and (3aS,5R,6aR)-3a-methyl-2-((tetrahydro-2H-pyran-4-yl)methyl-d2)-N-(6-(2-(trifluoromethyl)pyridin-3-yl)pyridazin-3-yl)octahydrocyclopenta[c]pyrrol-5-amine] | 2% | 1.9 nM | 
[2H]C1([2H])CC(C([2H])([2H])N2C[C@H]3C[C@H](Nc4ccc(-c5cccnc5C(F)(F)F)nn4)C[C@@]3(C)C2)CC([2H])([2H])O1 (racemic) [Compound 57, (3aR,5S,6aS)-3a-methyl-2-((tetrahydro-2H-pyran-4-yl-2,2,6,6-d4)methyl-d2)-N-(6-(2-(trifluoromethyl)pyridin-3-yl)pyridazin-3-yl)octahydrocyclopenta[c]pyrrol-5-amine and (3aS,5R,6aR)-3a-methyl-2-((tetrahydro-2H-pyran-4-yl-2,2,6,6-d4)methyl-d2)-N-(6-(2-(trifluoromethyl)pyridin-3-yl)pyridazin-3-yl)octahydrocyclopenta[c]pyrrol-5-amine] | 3% | 1.5 nM | 
[2H]C([2H])(C1CCOC(C)(C)C1)N1C[C@H]2C[C@H](Nc3ccc(-c4cnccc4C(F)(F)F)nn3)C[C@H]2C1 (single isomer, unassigned) [Compound 58] |  | 9.4 nM | 3%
[2H]C([2H])(C1CCOC(C)(C)C1)N1C[C@H]2C[C@H](Nc3ccc(-c4cnccc4C(F)(F)F)nn3)C[C@H]2C1 (single isomer, unassigned) [Compound 59] |  | 1 nM | 3%
FC(F)(F)c1ccncc1-c1ccc(N[C@H]2C[C@@H]3CN(CC4CCOCC4)C[C@@H]3C2)nn1 [Compound 1, (3aR,5s,6aS)-2-((tetrahydro-2H-pyran-4-yl)methyl)-N-(6-(4-(trifluoromethyl)pyridin-3-yl)pyridazin-3-yl)octahydrocyclopenta[c]pyrrol-5-amine] | 4% | 0.28 nM | 
[2H]C([2H])(C1CCOCC1)N1C[C@H]2C[C@H](Nc3ccc(-c4cnccc4C(F)(F)F)nn3)C[C@H]2C1 [Compound 2, (3aR,5s,6aS)-2-((tetrahydro-2H-pyran-4-yl)methyl-d2)-N-(6-(4-(trifluoromethyl)pyridin-3-yl)pyridazin-3-yl)octahydrocyclopenta[c]pyrrol-5-amine] | 3% | 0.41 nM | 
[2H]C([2H])(C1CCOCC1(C)C)N1C[C@H]2C[C@H](Nc3ccc(-c4cnccc4C(F)(F)F)nn3)C[C@H]2C1 (stereo partly drawn) [Compound 3, (3aR,5s,6aS)-2-((3,3-dimethyltetrahydro-2H-pyran-4-yl)methyl-d2)-N-(6-(4-(trifluoromethyl)pyridin-3-yl)pyridazin-3-yl)octahydrocyclopenta[c]pyrrol-5-amine] | 2% | 4.6 nM | 
[2H]C([2H])(N1C[C@H]2C[C@H](Nc3ccc(-c4cnccc4C(F)(F)F)nn3)C[C@H]2C1)C1(C)CCOCC1 [Compound 4, (3aR,5s,6aS)-2-((4-methyltetrahydro-2H-pyran-4-yl)methyl-d2)-N-(6-(4-(trifluoromethyl)pyridin-3-yl)pyridazin-3-yl)octahydrocyclopenta[c]pyrrol-5-amine] | 2% | 15 nM | 
[2H]C([2H])([C@H]1COCCO1)N1C[C@H]2C[C@H](Nc3ccc(-c4cnccc4C(F)(F)F)nn3)C[C@H]2C1 [Compound 5, (3aR,5s,6aS)-2-(((S)-1,4-dioxan-2-yl)methyl-d2)-N-(6-(4-(trifluoromethyl)pyridin-3-yl)pyridazin-3-yl)octahydrocyclopenta[c]pyrrol-5-amine] | 2% | 0.91 nM | 
[2H]C([2H])([C@@H]1COCCO1)N1C[C@H]2C[C@H](Nc3ccc(-c4cnccc4C(F)(F)F)nn3)C[C@H]2C1 [Compound 6, (3aR,5s,6aS)-2-(((R)-1,4-dioxan-2-yl)methyl-d2)-N-(6-(4-(trifluoromethyl)pyridin-3-yl)pyridazin-3-yl)octahydrocyclopenta[c]pyrrol-5-amine] | 3% | 33 nM | 
